The values that follow come from patent US4737361A, “Alpha adrenergic amine of substantial alpha2 adrenergic amine activity as an antiperspirant” (Bristol-Myers Company, priority 1986, dated 1988).

Counter-ions that a name gives are not always drawn.

In test [1] the test system is sweat glands. Nature of the test: rat foot pad sweat inhibition (starch-iodine count of secreting sweat glands, test foot vs control foot). The following applies: for Approx. % Inhibition: topical, rat hind foot pads, 40 minutes post treatment. In kind it is in vivo, Sprague Dawley rats. The protocol:
A series of test solutions were prepared by dissolving various quantities of xylometazoline HCl, oxymetazoline HCl and naphazoline HCl in freshly prepared distilled water. In the case of xylometazoline HCl 0.003%, 0.03%, 0.15% and 0.3% solutions were prepared. In the cases for oxymetazoline HCl and naphazoline HCl 0.15% solutions were made. The control material is distilled water.
A. Prior to testing, rats are routinely acclimated to the laboratory environment for seven days and gross observations are made to ensure good health of animals to be tested.
B. Sprague Dawley rats, male and/or female (175-250 gm) are selected for test and identified by cage label and ear tag number.
C. A minimum of 6 animals is used in testing each solution.
A. Test room should be maintained at a temperature of 78°±2° F.
1. Test animals are injected intramuscularly with Innovar Vet™ (0.01 ml/100 gm body wt.) by use of a 0.25 ml tuberculin syringe with a 26 or 27 gauge needle. Animals are then returned to their cages.
3. Both hind feet are then swabbed with 70% ethyl alcohol (ETOH) to remove any debris.
4. The four interdigital palmar foot pads on one hind foot are then treated with test material while the opposite hind foot is treated with the control material.
5. After treatment of all animals, an iodine solution (2% in 95% ETOH wt./vol.) is applied to both hind feet.
6. 30 minutes post treatment the hind feet are then painted with a suspension of starch and castor oil (50/50, wt./vol.).
7. 40 minutes post treatment Polaroid photos (3X, using Polaroid Type Film 669) are taken of both hind feet in the same frame.
1. The number of activated sweat glands in each of the four palmar foot pads is quantitated by manually counting the black dots observed in the photo of the control and test treated feet.
2. The ratio of the total number of secreting sweat glands on the control foot vs the total number of secreting sweat glands on the test foot is used to estimate the percent inhibition of sweat in the rat foot pad.
3. The following formula is used to calculate activity. [formula]

Test [2] has as its system single equine sweat glands. As to conditions: cited from earlier work.

Regarding `c1ccc2c(CC3=NCCN3)cccc2c1` [Naphazoline HCl, naphazoline HCl], the “Approx. % Inhibition” value in test [1] (Concentration Tested 0.15%) is recorded as about 95%.

For `Cc1cc(C(C)(C)C)c(O)c(C)c1CC1=NCCN1` [Oxymetazoline HCl, oxymetazoline HCl], the “Approx. % Inhibition” value in test [1] (Concentration Tested 0.15%) is on record as about 92%.

As for `Cc1cc(C(C)(C)C)cc(C)c1CC1=NCCN1` [Xylometazoline HCl, xylometazoline HCl], in test [1] (0.003-0.3% solutions), the “dose response of percent inhibition” value is given as “the percent inhibition increased with the increase in concentration of the test drug”. Further, the “Approx. % Inhibition” value was about 30% in test [1] (Concentration Tested 0.003%), about 50% in test [1] (Concentration Tested 0.03%), about 80% in test [1] (Concentration Tested 0.15%) and about 88% in test [1] (Concentration Tested 0.3%).

As for `COc1ccc(OC)c(C(O)C(C)N)c1` (stereo not drawn) [methoxamine], in test [2], the sweating responses entry is listed as “moderate sweating responses”.

Consider `CNC[C@H](O)c1cccc(O)c1` [phenylephrine], for which the sweating responses result in test [2] is listed as “moderate sweating responses”.
